From EP2401611B1, “IMPROVED METHODS FOR IDENTIFICATION” (Cambridge Enterprise Limited, priority 2009, dated 2010)
Read-outs that look alike come from different tables or passages of the source.

Columns and labels:
[1] = test system: TNF-alpha; test: Sub-lethal endotoxemia model (LPS challenge, serum TNF-alpha); type: in vivo, mouse; conditions: BN83250 subcutaneous, valerolactam oral gavage
Experimental: We selected the sub-lethal endotoxemia model in mouse, because this has been well characterised in our laboratory (see for example Fox et al. (2002) J. Med. Chem. 45:360-70; Fox et al. (2005) J. Med. Chem. 48:867-74). The extent of systemic inflammation in response to a single intraperitoneal injection of bacterial lipopolysaccharide (LPS) can be estimated by measuring serum TNF-alpha 2 hours post challenge.
Methods: Mice (CD1 strain; adult males; 6 per group) were treated with BSCI (in an appropriate vehicle) or with vehicle alone by an appropriate route. […] Simultaneously, one set of mice at each BSCI concentration received BIM 23627 at 4mg/animal (120mg/kg) by sub-cutaneous injection (a treatment condition known to suppress classical sstr2-mediated signalling, such as GH release, in rats; Tulipano et al. (2002) 143:1218-24). Between 30mins and 1hour after dosing (a period when a maximal plasma concentration of BSCI has been achieved), the inflammatory challenge was elicited by intraperitoneal injection of 750µg of LPS (Sigma; L4130 lot#024K4077; 900,000 EU/mg).
After a further 2 hours, the animals were sacrificed by CO2 asphyxiation, and blood was drawn by cardiac puncture. Serum was prepared by conventional methods, and the level of TNF-alpha in serum was measured using an ELISA (R&D Systems; Murine Quantikine code# MTA00) performed in accordance with the manufacturer's instructions.

[2] = test system: Panc-2H4; test: Human Panc-2H4 insulin suppression assay; type: cell-based; conditions: Homo sapiens
From the text: Two different assays for "classical" sstr2 functions were adopted: (1) cultured foetal rat pituitary cells secreted growth hormone which is inhibited by sstr2 agonists in a dose-dependent fashion and (2) selected glucose-sensitive sub-clones of the human Panc-1 cell line secrete insulin which is inhibited by sstr2 agonists in a dose-dependent fashion.
Glucose-sensitive sub-clones of the human Panc-1, a cell line derived from a pleiomorphic epithelioid carcinoma of the exocrine pancreas, were obtained essentially as described by Hamil et al. (2008) Biomed. Sci. Instrum. 44:441-6. Briefly, Panc-1 cells were subcultured in 24 well plates, and the medium was supplemented with an additional 5% glucose. […] The resulting sub-lines were then tested for glucose sensitivity by preparing wells of a 96-well plate (5 x 10^4 cells per well) which were then exposed to cultured medium containing a range of glucose concentrations (low glucose DMEM, DMEM, DMEM + 1% glucose, DMEM ± 2.5% glucose and DMEM + 5% glucose). After 24hrs incubation, the conditioned medium was collected and assayed for insulin secretion by ELISA (Linco; cat# EZHI-14K) in accordance with the manufacturer's instructions. […] Further 96 well plates were prepared using Panc-2H4 (5 x 10^4 cells per well) in DMEM. After 24hrs, the medium was switched to DMEM + 5% glucose containing various test agents at various concentrations (triplicate wells per condition). After a further 24hrs, the conditioned medium was harvested and the concentration of insulin was determined by ELISA as described above.
Results were reported as the mean ± SD, expressed as the fold change from cells in the presence of vehicle only.

[3] = test system: THP-1 cells; test: MCP-1 induced THP-1 cell migration (Transwell) assay; type: cell-based, human; conditions: for EC50 / Emax: Homo sapiens, THP-1
Experimental: Leukocyte migration was measured using the 96-well format micro Transwell^RTM assay system from Neuroprobe (Gaithersburg, MD, USA). In principle, this assay consists of two chambers separated by a porous membrane. The chemoattractant is placed in the lower compartment and the cells are placed in the upper compartment. After incubation for a period at 37°C the cells move towards the chemoattractant, and the number of cells in the lower compartment is proportional to the chemoattractant activity (relative to a series of controls).
The method was performed essentially as previously described (Reckless & Grainger (1999) Biochem. J. 340:803-11).
First, the cell suspension to be placed in the upper compartment was prepared. The THP-1 cells were pelleted by centrifugation (770 x g; 4 mins) and washed with Geys Balanced Salt Solution with 1mg/ml BSA (GBSS + BSA). This wash was then repeated, and the cells re-pelleted before being resuspended in a small volume of GBSS + BSA for counting, for example using a standard haemocytometer.
The volume of GBSS + BSA was then adjusted depending on the number of cells present so that the cells were at final density of 4.45 x 10^6 cells per ml of GBSS + BSA. This ensured that there were 100,000 THP-1 cells in each 25µl of the solution to be placed in the upper chamber of the plate.
The suspension of THP-1 cells at 4.45 x 10^6 cells/ml was divided into three pots. To one pot the BSCI was added at an appropriate final concentration, in an appropriate vehicle (for example (S)- 3-(2',2'-dimethylpropanoylamino)-tetrahydropyridin-2-one was added at 1nM from a stock solution in GBSS). To the second pot, the BSCI was added at the same concentration as in the first pot, but additionally the sstr2 antagonist was also added (for example BIM 23454 [Tulipano et al. (2002) 143:1218-24] or BIM 23627 were added at 66nM final concentration from a stock solution in GBSS). To the third pot, GBSS + BSA plus vehicle as appropriate was added so that the volumes in three pots are equal, acting as a control.
Next, the chemoattractant solution to be placed in the lower compartment was prepared. […]. Note that, as recommended by Frow et al (Med. Res. Rev. 24:276-98) this is the concentration of MCP-1 which induces maximal migration in this system. This solution was divided into three pots, as for the cell suspension. To one pot, the BSCI was added to the same final concentration as was added to the cell suspension, in the second pot the BSCI and the sstr2 antagonist were both added at the same concentration as previously added to the cell suspension, while to the remaining pot GBSS + BSA plus vehicle as appropriate was added so that the volumes in the three pots were equal. Note that the volume of liquid that needs to be added to make the addition of the BSCI and the sstr2 antagonist compounds needs to be taken into account, when establishing the final concentration of MCP-1 in the solution for the lower compartment and the final concentration of cells in the upper compartment.
Once the chemoattractant solutions for the lower wells and cell solutions for the upper chambers were prepared, the migration chamber was assembled. 29 µl of the appropriate chemoattractant solution was placed into the lower well of the chamber. Assays were performed with at least triplicate determinations of each condition. Once all the lower chambers were filled, the porous membrane was applied to the chamber in accordance with the manufacturer's instructions. Finally, 25 µl of the appropriate cell solution was applied to each upper chamber. A plastic lid was placed over the entire apparatus to prevent evaporation.
The assembled chamber was incubated at 37 °C, 5% CO2, for 2 hours. A suspension of cells in GBSS + BSA was also incubated under identical conditions in a tube: these cells were used to construct a standard curve for determining the number of cells that migrated to the lower chamber under each condition. […]

[4] = Table 3, percentage suppression compared to vehicle, read-out: Human Panc-2H4 insulin suppression assay Max effect (%)
[5] = Table 3, read-out: Human chemokine-induced THP-1 migration assay ED50
[6] = Table 3, read-out: Human chemokine-induced THP-1 migration assay Max effect (%)

With CCCCCCCCCCC(C)(C)C(=O)N[C@H]1CCCCNC1=O [BN83250, (S)-3-(2',2'-dimethyldodecanoyl)amino-caprolactam] the “inhibition of LPS-induced TNF-alpha production (in words)” value [1] was “dramatically inhibited”, the Emax [2, 4] was 28% and the EC50 ([2]; Table 3, read-out: Human Panc-2H4 insulin suppression assay ED50) was 1000 nM. The EC50 ([2]; Table 5, library screening hits, read-out: Panc-2H4 insulin suppression assay ("classical" target) ED50) was 1000 nM, the Emax ([2]; Table 5, read-out: Panc-2H4 insulin suppression assay ("classical" target) Max Effect (%)) was 28% and the “"Classical" : "BSCI" potency ratio Human” value [3] was under 0.00009. For the same molecule, the EC50 [3, 5] was 0.09 nM, the Emax [3, 6] was 100% and the EC50 ([3]; Table 5, library screening hits, read-out: Chemokine-induced THP-1 cell migration assay ("BSCI" target) ED50) was 0.09 nM. The Emax ([3]; Table 5, read-out: Chemokine-induced THP-1 cell migration assay ("BSCI" target) Max Effect (%)) was 100%, the EC50 ([3]; read-out: ED50 for inhibition of chemokine-induced THP-1 cell migration) was under 1 nM and the RATIO ([3]; Table 5, THP-1 migration ED50 versus insulin suppression ED50) was under 0.00009.

For CC(C)(C)C(=O)N[C@H]1CCCNC1=O [Valerolactam, (S)-3-(2'2'-dimethylpropionoylamino)-tetrahydropyridin-2-one], the “inhibition of LPS-induced TNF-alpha production (in words)” value [1] was “dramatically inhibited”, the Emax [2, 4] was under 10% and the “potency as BSCI relative to BN83253” value ([3]; Fig. 5 compared with Fig. 4) was 20-50 fold. For the same molecule, the EC50 [3, 5] was 0.05 nM, the Emax [3, 6] was 100% and the “"Classical" : "BSCI" potency ratio Human” value ([3]; Table 3, THP-1 migration ED50 versus Panc-2H4 insulin suppression ED50) was under 0.00005. For the same molecule, the “inhibition of MCP-1 induced cell migration (in words)” value ([3]; figure legends and text) was “inhibits MCP-1 induced cell migration in a dose-dependent manner”.
